“And” between values parts separate entries of the source, which are not always exact repeats. Equal entries are not always repeated. “Also recorded” adds a separate entry of the source. Structures can show the parent of a compound that is named as a salt. Where two headings read alike, the source gives them in different places.
Columns and labels:
HT29 = assay: CellTiterGlo cell viability assay, HT29; format: cell-based; conditions: HT29, 72 h; for EC50: read-out: Ab EC50; for inhibition at 198 µM: read-out: Top Inhibit
Outline: (§1)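 Duplicate wells received test compound across nine 3.16-fold steps (198 μM to 19.8 nM final) for about 3 days under standard culture. Viability was read by CTG luminescence, and absolute EC50 plus inhibition at highest dose derived.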

MCF-7 = assay: CellTiterGlo cell viability assay, MCF-7; format: cell-based; conditions: MCF-7, 72 h; for EC50: read-out: Ab EC50; for inhibition at 198 µM: read-out: Top Inhibit
Outline: as §1

Human hepatocytes = conditions: pooled cryopreserved hepatocytes, 1 μM, 0 and 120 min, 37° C.
Mia-Pa-Ca-2 = assay: CellTiterGlo cell viability assay, Mia-Pa-Ca-2; format: cell-based; conditions: Mia-Pa-Ca-2, 72 h
Outline: as §1

CCRF-CEM = assay: CellTiterGlo cell viability assay, CCRF-CEM; format: cell-based; conditions: Homo sapiens, 72 h; for EC50: Table 3 classes, read-out: Ab EC50; for inhibition at 198 µM: percentage inhibition at the highest concentration tested, read-out: Top Inh
Outline: as §1

RPMI-8226 = assay: CellTiterGlo cell viability assay, RPMI-8226; format: cell-based, Human; conditions: Homo sapiens, RPMI-8226, 72 h; for EC50: Table 3 classes, read-out: Ab EC50; for inhibition at 198 µM: percentage inhibition at the highest concentration tested, read-out: Top Inh
Outline: as §1

OVCAR 3 = assay: CellTiterGlo cell viability assay, OVCAR 3; format: cell-based; conditions: Homo sapiens; for EC50: OVCAR 3, 72 h, Table 3 classes, read-out: Ab EC50
Outline: as §1

[1] = test system: Lin−/CD34+/CD38−/CD123+ LSCs of KG1a cells; assay: Leukaemic stem cell (LSC) targeting in KG1a cells; format: cell-based; conditions: in words
Description: KG1a cells were cultured for 48 h in the presence of a wide range of concentrations of each nucleoside analogue and their respective diphosphate phosphramidate. Cells were then harvested and labelled with a cocktail of anti-lineage antibodies (PE-cy7), anti-CD34 (FITC), anti-CD38 (PE) and anti-CD123 (PERCP cy5). The sub-population expressing a leukaemic stem cell (LSC) phenotype were subsequently identified and were expressed as a percentage of all viable cells left in the culture. The percentages of stem cells remaining were then plotted on a dose-response graph and the effects of the diphosphate phosphoramidate were compared with the parental nucleosides.

RL = assay: CellTiterGlo cell viability assay, RL; format: cell-based; conditions: Homo sapiens, 72 h; for EC50: Table 3 classes, read-out: Ab EC50; for inhibition at 198 µM: percentage inhibition at the highest concentration tested, read-out: Top Inh
Outline: as §1

in vitro = conditions: human, hepatocytes, pH 7.3
MOLT-4 = assay: CellTiterGlo cell viability assay, MOLT-4; format: cell-based; conditions: Homo sapiens, MOLT-4, 72 h; for inhibition at 198 µM: percentage inhibition at the highest concentration tested, read-out: Top Inh; for EC50: Table 3 classes, read-out: Ab EC50
Outline: as §1

K562 = assay: CellTiterGlo cell viability assay, K562; format: cell-based; conditions: Homo sapiens, K562, 72 h; for inhibition at 198 µM: percentage inhibition at the highest concentration tested, read-out: Top Inh; for EC50: Table 3 classes, read-out: Ab EC50
Outline: as §1

HL-60 = assay: CellTiterGlo cell viability assay, HL-60; format: cell-based; conditions: Homo sapiens, HL-60, 72 h; for EC50: Table 3 classes, read-out: Ab EC50; for inhibition at 198 µM: percentage inhibition at the highest concentration tested, read-out: Top Inh
Outline: as §1

KG1a cells = assay: In vitro cytotoxicity, Annexin V/propidium iodide assay in KG1a cells; format: cell-based; conditions: for change of potency (mean LD50) under hypoxic versus normoxic conditions: 5% oxygen; for Hypoxia Mean LD50 / Mean LD50 (Normoxia Mean LD50): 48 h; for Hypoxia Mean LD50: hypoxic (5% O2); for Mean LD50 (Normoxia Mean LD50): normoxic (20% oxygen); for mean LD50: normoxic; for Ratio Normoxia/Hypoxia: ratio of mean LD50 values
Description: The acute myeloid leukaemia (AML) KG1a cell line was maintained in RPMI medium (Invitrogen, Paisley, UK) supplemented with 100 units/mL penicillin, 100 μg/mL streptomycin and 20% foetal calf serum. Cells were subsequently aliquoted (10^5 cells/100 μL) into 96-well plates and were incubated at 37° C. in a humidified normoxic (20% oxygen) or hypoxic (1% or 5% oxygen) atmosphere for 48 h in the presence of clofarabine, or clofarabine diphosphate phosphoramidates of the invention (1×10^−10M-1×10^−6M). In addition, control cultures were carried out to which no drug was added. Cells were subsequently harvested by centrifugation and were analysed by flow cytometry using the Annexin V assay.
Cultured cells were harvested by centrifugation and then resuspended in 195 μL of calcium-rich buffer. Subsequently, 5 μL of Annexin V (Caltag Medsystems, Botolph Claydon, UK) was added to the cell suspension and cells were incubated in the dark for 10 mins prior to washing. Cells were finally resuspended in 190 μL of calcium-rich buffer together with 10 μL of propidium iodide. Apoptosis was assessed by dual-colour immunofluorescent flow cytometry as described previously. Subsequently LD50 values (the dose required to kill 50% of the cells in a culture) were calculated for each nucleoside analogue and diphosphate phosphoramidate.
The data obtained in these experiments were evaluated using one-way ANOVA. All data was confirmed as Gaussian or a Gaussian approximation using the omnibus K2 test. LD50 values were calculated from the non-linear regression and line of best-fit analysis of the sigmoidal dose-response curves. All statistical analyses were performed using Graphpad Prism 6.0 software (Graphpad Software Inc., San Diego, Calif.).
The in vitro drug sensitivity of KG1a cells was assessed using the Annexin V/propidium iodide assay.

[2] = percentage inhibition at the highest concentration tested
[3] = Homo sapiens, HT-29, 72 h, Table 3 classes
[4] = Homo sapiens, HT-29, 72 h, percentage inhibition at the highest concentration tested
[5] = Homo sapiens, MCF7, 72 h, Table 3 classes
[6] = Homo sapiens, MCF7, 72 h, percentage inhibition at the highest concentration tested

With `Nc1ncnc2c1nc(Cl)n2[C@@H]1O[C@H](CO)[C@@H](O)[C@H]1O` [8-Cl-Adenosine, reference compound] the EC50 (HT29; absolute EC50, numeric values) was 1960 nM, the “Top Inhibit” value (HT29; [2]) was 73% and the EC50 (MCF-7; absolute EC50, numeric values) was 1830 nM. The “Top Inhibit” value (MCF-7; [2]) was 85.7%, the “Human hepatocytes Mean half-life” value (Human hepatocytes) was greater than 2 h and the EC50 (Mia-Pa-Ca-2; absolute EC50, read-out: Ab EC50) was 420 nM. For the same compound, the “Top Inhibit” value (Mia-Pa-Ca-2; [2]) was 85%.

For `C[C@H](NP(=O)(Oc1ccccc1)OP(=O)(O)OC[C@H]1O[C@@H](n2cnc3c(N)nc(Cl)nc32)[C@H](F)C1O)C(=O)OCc1ccccc1` (stereo partly drawn) [Example 1, 2-Chloro-9-(2′-Deoxy-2′-fluoro-β-D-arabinofuranosyl)adenine-5′-O-[phenyl(benzoxy-L-alaninyl)] Diphosphate Triethylammonium Salt], the EC50 (CCRF-CEM) was less than 200 nM, the inhibition at 198 µM (CCRF-CEM) was 98.7% and the EC50 (RPMI-8226) was 5000 to 10000 nM. The inhibition at 198 µM (RPMI-8226) was 91%, the EC50 (OVCAR 3) was greater than 10000 nM and the “selectivity against LSCs” value [1] was “trend towards increased selectivity”. The EC50 (RL) was 200 to 2000 nM, the inhibition at 198 µM (RL) was 70% and the half-life (in vitro) was 0.333 to 1.67 h. It also gave an inhibition at 198 µM (MOLT-4) of 82.7%, an EC50 (MOLT-4) of less than 200 nM and an inhibition at 198 µM (K562) of 24%. It also gave an EC50 (K562) greater than 10000 nM, an EC50 (HT29; [3]) of 200 to 2000 nM and an inhibition at 198 µM (HT29; [4]) of 66%. It also gave an EC50 (HL-60) of less than 200 nM, an inhibition at 198 µM (HL-60) of 97% and an EC50 (MCF-7; [5]) of 200 to 2000 nM. For the same compound, the inhibition at 198 µM (MCF-7; [6]) was 59%, the “change of potency (mean LD50) under hypoxic versus normoxic conditions” value (KG1a cells; in words) was “no significant difference in mean LD50 values; also recorded: reduction in potency was not observed” and the “Hypoxia Mean LD50” value (KG1a cells) was 16.3 nM. The “Mean LD50 (Normoxia Mean LD50)” value (KG1a cells) was 13.7 nM, the “potency in KG1a cells (dose-response curves)” value (KG1a cells; in words) was “highest potency; also recorded: slightly more potent” and the “mean LD50” value (KG1a cells) was 13.7 nM. The “Ratio Normoxia/Hypoxia” value (KG1a cells) was 84.0.

Work on `CCOC(=O)[C@H](C)NP(=O)(Oc1ccccc1)OP(=O)(O)OC[C@H]1O[C@@H](n2cnc3c(N)nc(Cl)nc32)[C@H](F)C1O` (stereo partly drawn) [Example 2, 2-Chloro-9-(2′-Deoxy-2′-fluoro-β-D-arabinofuranosyl)adenine-5′-O-[phenyl(ethoxy-L-alaninyl)] Diphosphate Triethylammonium Salt] yielded an EC50 (CCRF-CEM) of less than 200 nM, an inhibition at 198 µM (CCRF-CEM) of 98.7% and an EC50 (RPMI-8226) of 5000 to 10000 nM. It also gave an inhibition at 198 µM (RPMI-8226) of 92%, an inhibition at 198 µM (OVCAR 3; OVCAR-3, 72 h, percentage inhibition at the highest concentration tested, read-out: Top Inhibit) of 48% and an EC50 (OVCAR 3) greater than 10000 nM. For the same compound, the EC50 (RL) was 200 to 2000 nM, the inhibition at 198 µM (RL) was 65% and the half-life (in vitro) was 0.333 to 1.67 h. It also gave an inhibition at 198 µM (MOLT-4) of 98%, an EC50 (MOLT-4) of less than 200 nM and an inhibition at 198 µM (K562) of 29%. For the same compound, the EC50 (K562) was greater than 10000 nM, the EC50 (HT29; [3]) was 200 to 2000 nM and the inhibition at 198 µM (HT29; [4]) was 62%. The EC50 (HL-60) was less than 200 nM, the inhibition at 198 µM (HL-60) was 98% and the EC50 (MCF-7; [5]) was 200 to 2000 nM. The inhibition at 198 µM (MCF-7; [6]) was 54%, the “change of potency (mean LD50) under hypoxic versus normoxic conditions” value (KG1a cells; in words) was “reduction in potency was not observed” and the “Hypoxia Mean LD50” value (KG1a cells) was 95.0 nM. The “Mean LD50 (Normoxia Mean LD50)” value (KG1a cells) was 71.0 nM, the “mean LD50” value (KG1a cells) was 43.8 nM and 71 nM and the “Ratio Normoxia/Hypoxia” value (KG1a cells) was 74.7.
